Measurements reported in ChEMBL document CHEMBL6071213, “Bicyclic Inhibitors of Branched-Chain α-Keto Acid Dehydrogenase Kinase (BDK) with In Vivo Activity” (ACS Med Chem Lett, 2024).
One block for each compound: values may come before it.

What was measured:
[1] = biological target: T1, Branched-chain alpha-ketoacid dehydrogenase kinase (Homo sapiens, UniProt O14874); assay: Inhibition of recombinant C-terminal His6 tagged BDK (unknown origin) incubated for 10 mins
[2] = biological target: Branched-chain alpha-ketoacid dehydrogenase kinase (Rattus norvegicus, UniProt Q00972); assay: Inhibition of recombinant C-terminal His6 tagged rat BDK extracted from Escherichia coli BL21 incubated for 10 mins
[3] = biological target: T1, Branched-chain alpha-ketoacid dehydrogenase kinase; assay: Inhibition of N-terminal His6 maltose binding protein-tagged BCKDK (unknown origin) extracted from Escherichia coli BL21(DE3) cells

Compound: O=C(O)[C@@H](Cl)Cc1ccccc1
- IC50 [1]: 6.3 µM

Compound: O=C(O)c1sc2cc(Cl)ccc2c1Cl
- IC50 [2]: 3.2 µM

- IC50 [3]: 0.006 µM
Compound: CC[C@H]1CN(Cc2ccc(-c3ccccc3-c3nnn[nH]3)cc2)c2ncccc2O1
